Consider three compounds from patent US8481567B2, “Sigma receptor compounds” (Laboratorios del Dr. Esteve, S.A., priority 2006, dated 2013).

One data set concerns the target sigma-2 site (Homo sapiens, UniProt Q5BJF2). Conditions: statement in words, background section; cited from earlier work.
A further data set addresses sigma-1 site (Homo sapiens, UniProt Q99720). The conditions noted are these: statement in words, background section; cited from earlier work.

Sequence of sigma-2 site (Q5BJF2 whole entry): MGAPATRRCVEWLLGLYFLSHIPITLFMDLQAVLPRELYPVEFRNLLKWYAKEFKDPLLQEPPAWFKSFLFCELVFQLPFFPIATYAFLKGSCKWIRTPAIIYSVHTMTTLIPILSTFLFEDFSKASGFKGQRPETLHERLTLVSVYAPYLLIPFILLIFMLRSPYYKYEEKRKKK
Sequence of sigma-1 site (Q99720 whole entry): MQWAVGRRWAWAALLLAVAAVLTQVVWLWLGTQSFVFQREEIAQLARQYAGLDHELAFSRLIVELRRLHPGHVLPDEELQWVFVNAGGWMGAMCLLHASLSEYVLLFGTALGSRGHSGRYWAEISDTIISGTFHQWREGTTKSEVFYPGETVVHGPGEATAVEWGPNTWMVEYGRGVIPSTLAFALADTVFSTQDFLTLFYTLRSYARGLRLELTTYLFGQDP

The melting point is the temperature, or range, at which the solid turns liquid. On to `Cn1ccc2c1CCCC2CCN1CCC(O)(c2ccc(Cl)cc2)CC1.O=C(O)C(=O)O` (stereo not shown), for which the melting point is 154 to 155 °C.

`Cn1ccc2c1CCCC2CCN1CCC(c2ccccc2)CC1.O=C(O)C(=O)O` (stereo not shown) came in with a melting point of 86 to 90 °C.

For the compound SKF 10047, the “affinity for the sigma-2 site” value on sigma-2 site is reported as “micromolar”. The “affinity for the sigma-1 site” value at sigma-1 site is “nanomolar”.
